The values below come from paper PMC11775389, “Catalytic mechanism underlying the regiospecificity of coumarin-substrate transmembrane prenyltransferases in Apiaceae” (Plant and Cell Physiology, 2024).

Like-named read-outs stand apart in the source and are kept apart here.

Data set [1] deals with T1, PsPT1 (Pastinaca sativa, UniProt A0A0U1ZEE9).
T1 construct: gene PT1; full CDS (with transit peptide) in pGWB502; transient expression in Nicotiana benthamiana leaves, microsomes
In words: UHPLC of prenylated product, microsomes. The following applies: C6 product (demethylsuberosin); DMAPP co-substrate, Mg2+, 28 °C; read-out: Demethylsuberosin / (C6-position product) / Umbelliferone. Format: biochemical. An excerpt:
(§1) UHPLC of prenylated product, microsomes on PsPT1

In data set [2] the test system is AgPT1. The following applies: read-out: apparent Km, divalent cation.
Data set [3] concerns CC(C)=CCOP(=O)(O)OP(=O)(O)O. In words: UHPLC of prenylated product, microsomes. Format: biochemical, Pastinaca sativa. Conditions: C6 product (demethylsuberosin), umbelliferone co-substrate, Mg2+, 28 °C.
Source text: as §1

For data set [4], the system named is O=c1ccc2ccc(O)cc2o1. Briefly: UHPLC of prenylated product, microsomes. It counts as biochemical, Pastinaca sativa. The following applies: D2P8 (T/A), C6 product (demethylsuberosin), DMAPP co-substrate, Mg2+, 28 °C.
Source text: as §1

With `O=c1ccc2ccc(O)cc2o1` [umbelliferone], the Km in data set [1] was 2.7 ± 0.6 µM; in data set [2] (DMAPP co-substrate), 40 ± 20 µM.
For the molecule PsPT1 (Pastinaca sativa; T161A), the Km came out at 4.4 ± 0.8 µM in data set [3] (D2P8 (T/A)) and 47 ± 7 µM in data set [4].
As for PsPT1 (Pastinaca sativa), the Km in data set [3] stood at 5 ± 1 µM.
On to `CC(C)=CCOP(=O)(O)OP(=O)(O)O` [DMAPP], for which the Km in data set [2] (umbelliferone co-substrate) was 10 ± 3 µM.
